Source: PubChem BioAssay AID1259407 (Chemical Carcinogenesis Research Information System (CCRIS), 2018)
Activity calls are given as the source filed them. The rule behind the calls is not given here.

System: CCRIS mutagenicity, Ames/micronucleus/aberration tests
Assay: CCRIS mutagenicity studies

Measured: mutagenic call

C1COCCO1
inactive: Test System: AMES SALMONELLA TYPHIMURIUM, Strain/Indicator: TA1535, Metabolic Activation: RAT LIVER S-9, PHENOBARBITAL AND BETA-NAPHTHOFLAVONE (30%), Method: PREINCUBATION inactive; negative | Test System: AMES SALMONELLA TYPHIMURIUM, Strain/Indicator: TA1535, Metabolic Activation: RAT LIVER S-9, PHENOBARBITAL AND BETA-NAPHTHOFLAVONE, Method: GAS EXPOSURE inactive; negative | Test System: AMES SALMONELLA TYPHIMURIUM, Strain/Indicator: TA1537, Metabolic Activation: HAMSTER LIVER S-9, PHENOBARBITAL AND BETA-NAPHTHOFLAVONE (10%), Method: PREINCUBATION inactive; negative | Test System: AMES SALMONELLA TYPHIMURIUM, Strain/Indicator: TA1537, Metabolic Activation: HAMSTER LIVER S-9, PHENOBARBITAL AND BETA-NAPHTHOFLAVONE (30%), Method: PREINCUBATION inactive; negative | Test System: AMES SALMONELLA TYPHIMURIUM, Strain/Indicator: TA1537, Metabolic Activation: NONE, Method: GAS EXPOSURE inactive; negative | Test System: AMES SALMONELLA TYPHIMURIUM, Strain/Indicator: TA1537, Metabolic Activation: NONE, Method: PREINCUBATION inactive; negative | Test System: AMES SALMONELLA TYPHIMURIUM, Strain/Indicator: TA1537, Metabolic Activation: NONE, Method: STANDARD PLATE inactive; negative | Test System: AMES SALMONELLA TYPHIMURIUM, Strain/Indicator: TA1537, Metabolic Activation: RAT LIVER S-9, PHENOBARBITAL AND 5,6-BENZOFLAVONE, Method: PREINCUBATION inactive; negative | Test System: AMES SALMONELLA TYPHIMURIUM, Strain/Indicator: TA1537, Metabolic Activation: RAT LIVER S-9, PHENOBARBITAL AND 5,6-BENZOFLAVONE, Method: STANDARD PLATE inactive; negative | Test System: AMES SALMONELLA TYPHIMURIUM, Strain/Indicator: TA1537, Metabolic Activation: RAT LIVER S-9, PHENOBARBITAL AND BETA-NAPHTHOFLAVONE (10%), Method: PREINCUBATION inactive; negative | Test System: AMES SALMONELLA TYPHIMURIUM, Strain/Indicator: TA1537, Metabolic Activation: RAT LIVER S-9, PHENOBARBITAL AND BETA-NAPHTHOFLAVONE (30%), Method: PREINCUBATION inactive; negative | Test System: AMES SALMONELLA TYPHIMURIUM, Strain/Indicator: TA1537, Metabolic Activation: RAT LIVER S-9, PHENOBARBITAL AND BETA-NAPHTHOFLAVONE, Method: GAS EXPOSURE inactive; negative | Test System: E.COLI, Strain/Indicator: WP2 (PKM101), Metabolic Activation: NONE, Method: PREINCUBATION inactive; negative | Test System: E.COLI, Strain/Indicator: WP2 (PKM101), Metabolic Activation: NONE, Method: STANDARD PLATE inactive; negative | Test System: E.COLI, Strain/Indicator: WP2 (PKM101), Metabolic Activation: RAT LIVER S-9, PHENOBARBITAL AND 5,6-BENZOFLAVONE, Method: PREINCUBATION inactive; negative | Test System: E.COLI, Strain/Indicator: WP2 (PKM101), Metabolic Activation: RAT LIVER S-9, PHENOBARBITAL AND 5,6-BENZOFLAVONE, Method: STANDARD PLATE inactive; negative | Test System: E.COLI, Strain/Indicator: WP2 UVRA (PKM101), Metabolic Activation: NONE, Method: PREINCUBATION inactive; negative | Test System: E.COLI, Strain/Indicator: WP2 UVRA (PKM101), Metabolic Activation: NONE, Method: STANDARD PLATE inactive; negative | Test System: E.COLI, Strain/Indicator: WP2 UVRA (PKM101), Metabolic Activation: RAT LIVER S-9, PHENOBARBITAL AND 5,6-BENZOFLAVONE, Method: STANDARD PLATE inactive; negative | Test System: E.COLI, Strain/Indicator: WP2 UVRA(PKM101), Metabolic Activation: RAT LIVER S-9, PHENOBARBITAL AND 5,6-BENZOFLAVONE, Method: PREINCUBATION inactive; negative | Test System: E.COLI, Strain/Indicator: WP2UVRA/PKM101, Metabolic Activation: NONE, Method: GAS EXPOSURE inactive; negative | Test System: E.COLI, Strain/Indicator: WP2UVRA/PKM101, Metabolic Activation: RAT LIVER S-9, PHENOBARBITAL AND BETA-NAPHTHOFLAVONE, Method: GAS EXPOSURE inactive; negative | Test System: E.COLI, Strain/Indicator: WP2UVRA, Metabolic Activation: HAMSTER LIVER S-9, PHENOBARBITAL AND BETA-NAPHTHOFLAVONE (10%), Method: PREINCUBATION inactive; negative | Test System: E.COLI, Strain/Indicator: WP2UVRA, Metabolic Activation: HAMSTER LIVER S-9, PHENOBARBITAL AND BETA-NAPHTHOFLAVONE (30%), Method: PREINCUBATION inactive; negative | Test System: E.COLI, Strain/Indicator: WP2UVRA, Metabolic Activation: NONE, Method: GAS EXPOSURE inactive; negative | Test System: E.COLI, Strain/Indicator: WP2UVRA, Metabolic Activation: NONE, Method: PREINCUBATION inactive; negative | Test System: E.COLI, Strain/Indicator: WP2UVRA, Metabolic Activation: RAT LIVER S-9, PHENOBARBITAL AND BETA-NAPHTHOFLAVONE (10%), Method: PREINCUBATION inactive; negative | Test System: E.COLI, Strain/Indicator: WP2UVRA, Metabolic Activation: RAT LIVER S-9, PHENOBARBITAL AND BETA-NAPHTHOFLAVONE (30%), Method: PREINCUBATION inactive; negative | Test System: E.COLI, Strain/Indicator: WP2UVRA, Metabolic Activation: RAT LIVER S-9, PHENOBARBITAL AND BETA-NAPHTHOFLAVONE, Method: GAS EXPOSURE inactive; negative | Test System: MOUSE LYMPHOMA, Strain/Indicator: L5178Y (TK+/TK-), Metabolic Activation: NONE, Method: MICROTITER inactive; negative | Test System: MOUSE LYMPHOMA, Strain/Indicator: L5178Y (TK+/TK-), Metabolic Activation: NONE, Method: SUSPENSION/PLATE inactive; negative | Test System: MOUSE LYMPHOMA, Strain/Indicator: L5178Y (TK+/TK-), Metabolic Activation: RAT LIVER S-9, PHENOBARBITAL AND 5,6-BENZOFLAVONE (2 OR 5%), Method: MICROTITER inactive; negative | Test System: MOUSE LYMPHOMA, Strain/Indicator: L5178Y (TK+/TK-), Metabolic Activation: RAT, LIVER, S-9, AROCLOR 1254, Method: SUSPENSION/PLATE inactive; negative
